# Source: ChEMBL document CHEMBL5380866, “Discovery of Selective P2Y6R Antagonists with High Affinity and In Vivo Efficacy for Inflammatory Disease Therapy” (J Med Chem, 2023)
# Calls of active or inactive are those of the source. No cut-off for these calls is given here.
# Key:
# Mus musculus [1] = assay: Anti-inflammatory activity against LPS-induced acute lung injury C57BL/6J mouse model assessed as reduction in inflammatory infiltration in lung at 1 to 5 mg/kg, IT(Intratracheal) pretreated with LPS followed by compound addition and measured after 12 hrs by H and E staining based microscopic analysis; assay type: functional, organism-based; settings: dose 1-5 mg/kg
# Mus musculus [2] = assay: Anti-inflammatory activity against LPS-induced acute lung injury C57BL/6J mouse model assessed as reversal of increase in ERK-phosphorylation level 1 to 5 mg/kg, IT(Intratracheal) pretreated with LPS followed by compound addition and measured after 12 hrs by Western blot analysis; assay type: functional, organism-based; settings: dose 1-5 mg/kg
# [3] = Half life in Sprague-Dawley rat at 20 mg/kg, po measured at 10 to 720 mins by LC-MS/MS analysis; assay type: ADME, organism-based; settings: in vivo, time 10-720 min
# [4] = Volume of distribution in Sprague-Dawley rat at 2 mg/kg, iv measured at 3 to 480 mins by LC-MS/MS analysis; assay type: ADME, organism-based; settings: in vivo, time 3-480 min
# Mus musculus [5] = assay: Anti-inflammatory activity against DSS-induced acute ulcerative colitis intrarectal dosed C57BL/6J mouse model assessed as […] length administered daily from 1 to 7 days; assay type: functional, organism-based; settings: route rec, time 1-7 day
# Mus musculus [6] = assay: Anti-inflammatory activity against LPS-induced acute lung injury C57BL/6J mouse model assessed as reversal of increase in TLR4 expression level 1 to 5 mg/kg, IT(Intratracheal) pretreated with LPS followed by compound addition and measured after 12 hrs by Western blot analysis; assay type: functional, organism-based; settings: dose 1-5 mg/kg
# Mus musculus [7] = assay: Anti-inflammatory activity against LPS-induced acute lung injury C57BL/6J mouse model assessed as reduction in inflammatory infiltration in BALF administered IT(Intratracheal) pretreated with LPS followed by compound addition and measured after 12 hrs; assay type: functional, organism-based; settings: dose 1-5 mg/kg
# Mus musculus [8] = assay: Anti-inflammatory activity against DSS-induced acute ulcerative colitis intrarectal dosed C57BL/6J mouse model assessed as […] Occludin expression at high dose measured after 8 hrs by Western blot analysis; assay type: functional, organism-based; settings: route rec
# Mus musculus [9] = assay: Anti-inflammatory activity against DSS-induced acute ulcerative colitis intrarectal dosed C57BL/6J mouse model assessed as […] ZO-1 expression at high dose measured after 8 hrs by Western blot analysis; assay type: functional, organism-based; settings: route rec
# Mus musculus [10] = assay: Anti-inflammatory activity against LPS-induced acute lung injury C57BL/6J mouse model assessed as decrease in lung TNF-alpha mRNA expression level 1 to 5 mg/kg, IT(Intratracheal) pretreated with LPS followed by compound addition and measured after 12 hrs RT-PCR analysis; assay type: functional, organism-based; settings: dose 1-5 mg/kg
# Mus musculus [11] = assay: Anti-inflammatory activity against DSS-induced acute ulcerative colitis intrarectal dosed C57BL/6J mouse model assessed as decrease in spleen index administered daily from 1 to 7 days; assay type: functional, organism-based; settings: route rec, time 1-7 day
# Mus musculus [12] = assay: Inhibition of NLRP3 inflammasome activation in DSS-induced acute ulcerative colitis intrarectal dosed C57BL/6J mouse model assessed as decrease in colon NLRP3 expression measured after 8 hrs by Western blot analysis; assay type: functional, organism-based; settings: route rec
# Mus musculus [13] = assay: Anti-inflammatory activity against DSS-induced acute ulcerative colitis intrarectal dosed C57BL/6J mouse model assessed as decrease in mucosal damage administered daily from 1 to 7 days by H and E staining based microscopic analysis; assay type: functional, organism-based; settings: route rec, time 1-7 day
# Mus musculus [14] = assay: Anti-inflammatory activity against LPS-induced acute lung injury C57BL/6J mouse model assessed as decrease in TNF-alpha secretion in BALF 1 to 5 mg/kg, IT(Intratracheal) pretreated with LPS followed by compound addition and measured after 12 hrs ELISA analysis; assay type: functional, organism-based; settings: dose 1-5 mg/kg
# [15] = Oral bioavailability in Sprague-Dawley rat at 20 mg/kg measured at 10 to 720 mins by LC-MS/MS analysis; assay type: ADME, organism-based; settings: in vivo, time 10-720 min
# Mus musculus [16] = assay: Anti-inflammatory activity against LPS-induced acute lung injury C57BL/6J mouse model assessed as decrease in IL-1beta secretion in BALF 1 to 5 mg/kg, IT(Intratracheal) pretreated with LPS followed by compound addition and measured after 12 hrs ELISA analysis; assay type: functional, organism-based; settings: dose 1-5 mg/kg
# [17] = Cmax in Sprague-Dawley rat at 20 mg/kg, po measured at 10 to 720 mins by LC-MS/MS analysis; assay type: ADME, organism-based; parameters: time upper 720 min, dose 20 mg/kg, time lower 10 min, route po; settings: in vivo
# Mus musculus [18] = assay: Anti-inflammatory activity against LPS-induced acute lung injury C57BL/6J mouse model assessed as restoration of lung structure at 1 to 5 mg/kg, IT(Intratracheal) pretreated with LPS followed by compound addition and measured after 12 hrs by H and E staining based microscopic analysis; assay type: functional, organism-based; settings: dose 1-5 mg/kg
# P2Y purinoceptor 6 [19] = target: T1, P2Y purinoceptor 6 (Homo sapiens, UniProt Q15077); assay: Binding affinity to human recombinant P2Y6R assessed as dissociation constant by grating-coupled interferometry analysis
# T1 sequence (Q15077 whole entry): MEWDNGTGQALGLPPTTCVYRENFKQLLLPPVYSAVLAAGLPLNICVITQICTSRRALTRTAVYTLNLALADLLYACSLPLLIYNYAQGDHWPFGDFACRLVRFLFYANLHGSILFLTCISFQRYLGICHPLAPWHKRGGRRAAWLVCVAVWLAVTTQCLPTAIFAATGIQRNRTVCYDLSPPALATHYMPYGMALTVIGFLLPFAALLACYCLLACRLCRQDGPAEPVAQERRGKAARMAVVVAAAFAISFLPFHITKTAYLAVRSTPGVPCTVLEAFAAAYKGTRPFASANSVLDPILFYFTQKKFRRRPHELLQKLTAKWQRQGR
# [20] = Clearance in Sprague-Dawley rat at 2 mg/kg, iv measured at 3 to 480 mins by LC-MS/MS analysis; assay type: ADME, organism-based; settings: in vivo, time 3-480 min
# Mus musculus [21] = assay: Inhibition of NLRP3 inflammasome activation in DSS-induced acute ulcerative colitis intrarectal dosed C57BL/6J mouse model assessed as decrease in colon caspase-1 expression measured after 8 hrs by Western blot analysis; assay type: functional, organism-based; settings: route rec
# Mus musculus [22] = assay: Anti-inflammatory activity against LPS-induced acute lung injury C57BL/6J mouse model assessed as reversal of increase in MyD88 expression level 1 to 5 mg/kg, IT(Intratracheal) pretreated with LPS followed by compound addition and measured after 12 hrs by Western blot analysis; assay type: functional, organism-based; settings: dose 1-5 mg/kg
# [23] = AUC (0 to t) in Sprague-Dawley rat at 20 mg/kg, po measured at 10 to 720 mins by LC-MS/MS analysis; assay type: ADME, organism-based; parameters: time upper 720 min, time lower 10 min, dose 20 mg/kg, route po; settings: in vivo
# Mus musculus [24] = assay: Anti-inflammatory activity against DSS-induced acute ulcerative colitis intrarectal dosed C57BL/6J mouse model assessed as decrease in goblet cells administered daily from 1 to 7 days by H and E staining based microscopic analysis; assay type: functional, organism-based; settings: route rec, time 1-7 day
# Mus musculus [25] = assay: Inhibition of NLRP3 inflammasome activation in DSS-induced acute ulcerative colitis intrarectal dosed C57BL/6J mouse model assessed as decrease in colon ASC expression measured after 8 hrs by Western blot analysis; assay type: functional, organism-based; settings: route rec
# Mus musculus [26] = assay: Anti-inflammatory activity against DSS-induced acute ulcerative colitis intrarectal dosed C57BL/6J mouse model assessed as […] claudin-1 expression at high dose measured after 8 hrs by Western blot analysis; assay type: functional, organism-based; settings: route rec
# Mus musculus [27] = assay: Anti-inflammatory activity against DSS-induced acute ulcerative colitis intrarectal dosed C57BL/6J mouse model assessed as reduction in inflammatory infiltration administered daily from 1 to 7 days by H and E staining based microscopic analysis; assay type: functional, organism-based; settings: route rec, time 1-7 day
# HT-29 = assay: Cytotoxicity against human HT-29 cells assessed as inhibition of cell growth at below 10 uM incubated for 12 to 24 hrs by CCK-8 assay; assay type: functional, cell-based; settings: time 12-24 hrs
# A549 = assay: Cytotoxicity against human A549 cells assessed as inhibition of cell growth at below 10 uM incubated for 12 hrs by CCK-8 assay; assay type: functional, cell-based
# [28] = Cmax in Sprague-Dawley rat at 2 mg/kg, iv measured at 3 to 480 mins by LC-MS/MS analysis; assay type: ADME, organism-based; parameters: time upper 480 min, time lower 3 min, dose 2 mg/kg, route iv; settings: in vivo
# [29] = MRT in Sprague-Dawley rat at 2 mg/kg, iv measured at 3 to 480 mins by LC-MS/MS analysis; assay type: ADME, organism-based; settings: in vivo, time 3-480 min
# Mus musculus [30] = assay: Anti-inflammatory activity against LPS-induced acute lung injury C57BL/6J mouse model assessed as decrease in lung IL-1beta mRNA expression level 1 to 5 mg/kg, IT(Intratracheal) pretreated with LPS followed by compound addition and measured after 12 hrs RT-PCR analysis; assay type: functional, organism-based; settings: dose 1-5 mg/kg
# [31] = AUC (0 to t) in Sprague-Dawley rat at 2 mg/kg, iv measured at 3 to 480 mins by LC-MS/MS analysis; assay type: ADME, organism-based; parameters: dose 2 mg/kg, time 3-480 min, route iv; settings: in vivo
# Mus musculus [32] = assay: Anti-inflammatory activity against LPS-induced acute lung injury C57BL/6J mouse model assessed as reversal of increase in p-38 phosphorylation level 1 to 5 mg/kg, IT(Intratracheal) pretreated with LPS followed by compound addition and measured after 12 hrs by Western blot analysis; assay type: functional, organism-based; settings: dose 1-5 mg/kg
# [33] = Half life in Sprague-Dawley rat at 2 mg/kg, iv measured at 3 to 480 mins by LC-MS/MS analysis; assay type: ADME, organism-based; settings: in vivo, time 3-480 min
# P2Y purinoceptor 6 [34] = target: T1, P2Y purinoceptor 6; assay: Antagonist activity at human P2Y6R expressed in HEK293 cells assessed as inhibition of UDP-induced IP3 production preincubated for 0.5 hrs followed by UDP stimulation and measured after 12 hrs by ELISA analysis; assay type: functional, cell-based
# Mus musculus [35] = assay: Anti-inflammatory activity against LPS-induced acute lung injury C57BL/6J mouse model assessed as reduction in pulmonary edema administered IT(Intratracheal) pretreated with LPS followed by compound addition and measured after 12 hrs; assay type: functional, organism-based; settings: dose 1-5 mg/kg
# Mus musculus [36] = assay: Anti-inflammatory activity against DSS-induced acute ulcerative colitis intrarectal dosed C57BL/6J mouse model assessed as decrease in crypt necrosis administered daily from 1 to 7 days by H and E staining based microscopic analysis; assay type: functional, organism-based; settings: route rec, time 1-7 day
# [37] = Tmax in Sprague-Dawley rat at 20 mg/kg, po measured at 10 to 720 mins by LC-MS/MS analysis; assay type: ADME, organism-based; settings: in vivo, time 10-720 min
structure (smiles),measurement,setting,value
CC(C)(C)n1nc(-c2nc3cc(Cl)ccc3[nH]2)cc1-c1ccco1,Activity,Mus musculus [1],Active
same,Activity,Mus musculus [2],Active
same,half-life,[3],6.46 h
same,Vd,[4],20.1 L/kg
same,Activity,Mus musculus [5],Dose-Dependent Effect
same,Activity,Mus musculus [6],Active
same,Activity,Mus musculus [7],Dose-Dependent Effect
same,Activity,Mus musculus [8],Active
same,Activity,Mus musculus [9],Active
same,Activity,Mus musculus [10],Active
same,Activity,Mus musculus [11],Dose-Dependent Effect
same,inhibition,Mus musculus [12],Active
same,Activity,Mus musculus [13],Active
same,Activity,Mus musculus [14],Active
same,bioavailability,[15],15.9%
same,Activity,Mus musculus [16],Active
same,Cmax,[17],53.7 ng/mL
same,Activity,Mus musculus [18],Active
same,Kd,P2Y purinoceptor 6 [19],3470 nM
same,clearance,[20],130 mL/min/kg
same,inhibition,Mus musculus [21],Active
same,Activity,Mus musculus [22],Active
same,AUC(0-t),[23],415 ng·h/mL
same,Activity,Mus musculus [24],Active
same,inhibition,Mus musculus [25],Active
same,Activity,Mus musculus [26],Active
same,Activity,Mus musculus [27],Active
same,inhibition,HT-29,inactive
same,inhibition,A549,inactive
same,Cmax,[28],1050 ng/mL
same,MRT,[29],0.575 h
same,Activity,Mus musculus [30],Active
same,AUC(0-t),[31],261 ng·h/mL
same,Activity,Mus musculus [32],Active
same,half-life,[33],1.81 h
same,IC50,P2Y purinoceptor 6 [34],5.91 nM
same,Activity,Mus musculus [35],Dose-Dependent Effect
same,Activity,Mus musculus [36],Active
same,Tmax,[37],2 h
